Where two headings read alike, the source gives them in different places.
Legend:
Test in all cases: selectivity profiling in a panel of 340 wild-type kinases (Reaction Biology Europe)
Assay type in all cases: binding
[1] = biological target: T1, 340 wild-type kinases (Homo sapiens, UniProt P17948)
T1 construct: purchased Reaction Biology Europe

[2] = biological target: T2, 340 wild-type kinases (Homo sapiens, UniProt Q16288)
T2 construct: purchased Reaction Biology Europe

[3] = biological target: T3, 340 wild-type kinases (Homo sapiens, UniProt Q8N568)
T3 construct: purchased Reaction Biology Europe
T3 sequence (Q8N568 whole entry): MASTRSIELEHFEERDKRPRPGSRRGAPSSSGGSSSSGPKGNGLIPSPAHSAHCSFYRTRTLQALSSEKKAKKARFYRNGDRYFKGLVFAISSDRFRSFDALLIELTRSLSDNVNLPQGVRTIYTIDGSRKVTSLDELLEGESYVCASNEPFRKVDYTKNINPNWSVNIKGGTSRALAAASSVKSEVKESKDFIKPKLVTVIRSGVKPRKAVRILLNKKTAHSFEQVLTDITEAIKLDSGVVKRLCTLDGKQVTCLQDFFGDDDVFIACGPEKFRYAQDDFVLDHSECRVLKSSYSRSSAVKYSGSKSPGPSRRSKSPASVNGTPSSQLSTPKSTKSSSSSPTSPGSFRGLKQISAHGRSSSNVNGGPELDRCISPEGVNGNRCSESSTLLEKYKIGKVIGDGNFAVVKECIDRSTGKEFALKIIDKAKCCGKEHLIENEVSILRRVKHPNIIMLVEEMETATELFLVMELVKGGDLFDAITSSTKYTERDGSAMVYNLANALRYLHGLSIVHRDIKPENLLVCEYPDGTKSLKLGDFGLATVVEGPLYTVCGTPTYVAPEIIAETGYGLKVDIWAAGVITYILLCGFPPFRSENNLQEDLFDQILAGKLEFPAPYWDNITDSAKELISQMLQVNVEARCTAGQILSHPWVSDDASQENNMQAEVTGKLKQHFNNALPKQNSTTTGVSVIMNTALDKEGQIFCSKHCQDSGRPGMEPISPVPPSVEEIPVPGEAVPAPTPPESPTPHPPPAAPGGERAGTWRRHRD

[4] = biological target: T4, 340 wild-type kinases (Homo sapiens, UniProt Q8TF76)
T4 construct: purchased Reaction Biology Europe
T4 sequence (Q8TF76 1-798): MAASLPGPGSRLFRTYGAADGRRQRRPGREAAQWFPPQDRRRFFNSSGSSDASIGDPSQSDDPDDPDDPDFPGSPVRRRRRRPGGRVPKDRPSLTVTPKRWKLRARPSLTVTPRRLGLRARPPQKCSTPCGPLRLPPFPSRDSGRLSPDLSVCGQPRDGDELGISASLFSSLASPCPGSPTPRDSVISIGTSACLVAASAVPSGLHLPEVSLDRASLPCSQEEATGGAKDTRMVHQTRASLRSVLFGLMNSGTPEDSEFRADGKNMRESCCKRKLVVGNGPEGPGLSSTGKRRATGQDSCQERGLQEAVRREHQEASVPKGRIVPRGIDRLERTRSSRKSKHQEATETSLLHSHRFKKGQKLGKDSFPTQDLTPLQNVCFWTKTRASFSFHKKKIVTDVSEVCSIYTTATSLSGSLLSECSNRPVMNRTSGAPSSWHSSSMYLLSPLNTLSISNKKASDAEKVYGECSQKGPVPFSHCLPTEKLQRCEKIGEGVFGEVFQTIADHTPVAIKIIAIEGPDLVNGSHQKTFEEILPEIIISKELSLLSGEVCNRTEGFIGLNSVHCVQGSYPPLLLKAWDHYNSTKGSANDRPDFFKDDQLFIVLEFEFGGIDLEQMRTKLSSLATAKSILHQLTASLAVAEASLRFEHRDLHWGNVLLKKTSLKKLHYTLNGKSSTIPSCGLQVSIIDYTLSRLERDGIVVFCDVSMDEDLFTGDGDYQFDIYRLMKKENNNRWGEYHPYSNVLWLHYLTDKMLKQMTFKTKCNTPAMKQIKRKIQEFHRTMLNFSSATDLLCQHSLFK

[5] = biological target: T5, 340 wild-type kinases (Homo sapiens, UniProt Q9NZJ5)
T5 construct: purchased Reaction Biology Europe
T5 sequence (Q9NZJ5 30-1116): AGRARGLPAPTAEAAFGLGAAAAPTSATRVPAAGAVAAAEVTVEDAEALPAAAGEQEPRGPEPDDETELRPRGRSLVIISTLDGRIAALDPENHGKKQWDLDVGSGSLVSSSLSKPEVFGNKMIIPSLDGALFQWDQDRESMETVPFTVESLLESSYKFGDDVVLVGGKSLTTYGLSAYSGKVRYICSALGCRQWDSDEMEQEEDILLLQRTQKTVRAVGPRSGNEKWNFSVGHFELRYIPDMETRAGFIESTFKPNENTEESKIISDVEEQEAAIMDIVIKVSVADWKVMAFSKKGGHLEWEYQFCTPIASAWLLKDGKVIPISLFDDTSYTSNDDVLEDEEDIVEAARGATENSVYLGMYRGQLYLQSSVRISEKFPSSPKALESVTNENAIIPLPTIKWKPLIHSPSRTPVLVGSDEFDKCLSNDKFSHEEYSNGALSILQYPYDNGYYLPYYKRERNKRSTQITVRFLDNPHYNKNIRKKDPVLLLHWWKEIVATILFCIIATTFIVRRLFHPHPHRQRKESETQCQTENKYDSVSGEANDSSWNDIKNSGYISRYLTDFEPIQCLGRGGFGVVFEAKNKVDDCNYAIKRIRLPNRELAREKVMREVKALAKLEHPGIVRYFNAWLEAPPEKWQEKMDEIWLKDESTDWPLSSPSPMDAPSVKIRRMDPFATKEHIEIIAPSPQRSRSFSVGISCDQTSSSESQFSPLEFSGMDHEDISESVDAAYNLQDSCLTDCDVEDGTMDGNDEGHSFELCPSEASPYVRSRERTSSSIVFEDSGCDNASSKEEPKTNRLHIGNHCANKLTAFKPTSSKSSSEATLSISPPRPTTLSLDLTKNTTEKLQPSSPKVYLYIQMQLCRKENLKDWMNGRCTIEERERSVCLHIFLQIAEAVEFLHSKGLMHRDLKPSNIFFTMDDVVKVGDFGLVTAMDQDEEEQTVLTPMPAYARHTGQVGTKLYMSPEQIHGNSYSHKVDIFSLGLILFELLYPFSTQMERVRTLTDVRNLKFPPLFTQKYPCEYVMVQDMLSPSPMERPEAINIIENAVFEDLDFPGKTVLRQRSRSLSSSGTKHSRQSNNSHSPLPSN

T2 sequence (Q16288 32-839): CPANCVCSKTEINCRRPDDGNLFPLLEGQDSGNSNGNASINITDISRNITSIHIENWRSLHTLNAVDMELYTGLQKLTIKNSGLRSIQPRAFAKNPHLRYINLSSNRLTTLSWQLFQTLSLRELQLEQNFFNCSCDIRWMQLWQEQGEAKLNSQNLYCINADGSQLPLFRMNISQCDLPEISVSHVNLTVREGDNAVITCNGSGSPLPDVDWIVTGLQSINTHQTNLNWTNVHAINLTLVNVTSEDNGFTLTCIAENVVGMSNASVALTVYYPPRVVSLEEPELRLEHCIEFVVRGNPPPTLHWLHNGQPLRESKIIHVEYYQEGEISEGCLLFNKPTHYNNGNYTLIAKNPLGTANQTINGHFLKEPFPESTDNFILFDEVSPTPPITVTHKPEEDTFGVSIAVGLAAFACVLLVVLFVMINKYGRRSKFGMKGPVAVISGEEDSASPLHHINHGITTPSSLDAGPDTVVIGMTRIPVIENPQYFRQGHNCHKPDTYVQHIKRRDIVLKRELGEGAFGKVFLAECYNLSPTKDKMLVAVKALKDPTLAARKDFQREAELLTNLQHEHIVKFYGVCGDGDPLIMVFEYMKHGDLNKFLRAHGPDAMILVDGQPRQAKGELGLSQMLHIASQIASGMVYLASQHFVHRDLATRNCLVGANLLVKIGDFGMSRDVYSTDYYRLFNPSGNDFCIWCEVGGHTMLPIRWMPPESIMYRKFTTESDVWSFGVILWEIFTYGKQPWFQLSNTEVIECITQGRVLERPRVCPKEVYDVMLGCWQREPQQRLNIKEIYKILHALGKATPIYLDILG
T1 sequence (P17948 27-1338): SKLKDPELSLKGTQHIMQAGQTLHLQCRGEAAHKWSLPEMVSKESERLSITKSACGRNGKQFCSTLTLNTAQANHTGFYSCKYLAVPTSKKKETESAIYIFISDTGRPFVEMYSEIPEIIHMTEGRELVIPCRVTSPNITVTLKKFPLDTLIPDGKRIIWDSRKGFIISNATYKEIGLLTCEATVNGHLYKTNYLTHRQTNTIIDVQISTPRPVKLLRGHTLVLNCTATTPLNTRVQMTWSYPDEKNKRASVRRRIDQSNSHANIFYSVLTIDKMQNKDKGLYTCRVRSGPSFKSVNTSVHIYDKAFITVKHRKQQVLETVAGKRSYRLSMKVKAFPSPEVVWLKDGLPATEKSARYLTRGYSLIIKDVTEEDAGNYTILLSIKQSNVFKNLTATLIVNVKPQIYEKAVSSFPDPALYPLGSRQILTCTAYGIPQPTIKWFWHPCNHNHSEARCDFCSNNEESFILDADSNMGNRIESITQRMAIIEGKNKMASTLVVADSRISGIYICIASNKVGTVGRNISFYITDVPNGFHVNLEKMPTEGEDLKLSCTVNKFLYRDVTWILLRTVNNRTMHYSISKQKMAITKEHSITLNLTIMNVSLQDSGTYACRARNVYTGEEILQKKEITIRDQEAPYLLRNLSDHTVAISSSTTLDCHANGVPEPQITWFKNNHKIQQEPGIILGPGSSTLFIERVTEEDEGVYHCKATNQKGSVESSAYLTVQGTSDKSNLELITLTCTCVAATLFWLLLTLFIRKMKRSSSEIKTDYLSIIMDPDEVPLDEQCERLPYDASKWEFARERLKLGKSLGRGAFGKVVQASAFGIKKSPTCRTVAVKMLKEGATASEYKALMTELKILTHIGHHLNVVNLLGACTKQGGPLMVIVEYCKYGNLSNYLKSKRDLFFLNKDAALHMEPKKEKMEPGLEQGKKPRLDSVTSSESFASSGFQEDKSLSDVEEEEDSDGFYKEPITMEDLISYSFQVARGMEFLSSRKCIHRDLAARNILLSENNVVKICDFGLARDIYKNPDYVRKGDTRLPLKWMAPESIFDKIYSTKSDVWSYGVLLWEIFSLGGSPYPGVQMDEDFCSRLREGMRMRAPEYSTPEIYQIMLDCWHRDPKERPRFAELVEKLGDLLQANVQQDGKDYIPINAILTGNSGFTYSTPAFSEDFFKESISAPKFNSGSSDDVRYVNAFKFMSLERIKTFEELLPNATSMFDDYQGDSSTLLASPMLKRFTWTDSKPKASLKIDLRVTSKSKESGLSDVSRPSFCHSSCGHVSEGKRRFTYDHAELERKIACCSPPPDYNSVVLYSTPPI

CNC(=O)c1ccc2c(c1)C(=O)c1ccc(Nc3ccc(F)c(NC(=O)C4CC4)c3)cc1CC2 [Compound 2015]
remaining activity at 0.2 µM ([1]; 0.2 µM 2015, read-out: VEGFR1 residual activity): 113% | remaining activity at 1 µM ([1]; 1 µM 2015, read-out: VEGFR1 residual activity): 116% | remaining activity at 0.2 µM ([1]; VEGFR1, 0.2 µM, read-out: residual activity): 113% | remaining activity at 1 µM ([1]; VEGFR1, 1 µM, read-out: residual activity): 116% | remaining activity at 0.2 µM ([2]; 0.2 µM 2015, read-out: TRKC residual activity): 104% | remaining activity at 1 µM ([2]; 1 µM 2015, read-out: TRKC residual activity): 94.3% | remaining activity at 0.2 µM ([2]; TRKC, 0.2 µM, read-out: residual activity): 104% | remaining activity at 1 µM ([2]; TRKC, 1 µM, read-out: residual activity): 94.3% | remaining activity at 0.2 µM ([3]; 0.2 µM 2015, read-out: DCAMKL2 residual activity): 102% | remaining activity at 1 µM ([3]; 1 µM 2015, read-out: DCAMKL2 residual activity): 86.3% | remaining activity at 0.2 µM ([3]; DCAMKL2, 0.2 µM, read-out: residual activity): 102% | remaining activity at 1 µM ([3]; DCAMKL2, 1 µM, read-out: residual activity): 86.3% | remaining activity at 0.2 µM ([4]; 0.2 µM 2015, read-out: GSG2 residual activity): 105% | remaining activity at 1 µM ([4]; 1 µM 2015, read-out: GSG2 residual activity): 82.5% | remaining activity at 0.2 µM ([4]; GSG2, 0.2 µM, read-out: residual activity): 105% | remaining activity at 1 µM ([4]; GSG2, 1 µM, read-out: residual activity): 82.5% | remaining activity at 1 µM ([5]; 1 µM 2015, read-out: EIF2AK3 residual activity): 86.3% | remaining activity at 0.2 µM ([5]; EIF2AK3, 0.2 µM, read-out: residual activity): 93.3% | remaining activity at 1 µM ([5]; EIF2AK3, 1 µM, read-out: residual activity): 86.3%

Source: PMC11864979, “First-in-class ultralong-target-residence-time p38α inhibitors as a mitosis-targeted therapy for colorectal cancer” (Nature Cancer, 2025)
